Measured values published in PubChem BioAssay AID256 (DTP/NCI, 2004).
Several values for one entry are separate records, joined by “and”; a condition that tells them apart may be missing. Equal entries are not always repeated. Toxic doses and inconclusive results are not listed. The calls were made as follows: active = survival T/C of 150% or more; inactive = T/C below 125% in these data. Starred links: 1 amine or outer side, 2 acyl side, 3 side chain; linkers in the order of their positions; H or OH if unused. Positions of bridges follow the written chain, without caps; N, C: chain ends. Non-standard residues stand in square brackets, D forms with d. Residues, ends and D or L forms follow the SMILES beside them. Chains are numbered I, II in the order given. Actinocin(9to1) = Cc1c2oc3c(C)ccc(C(=O)[*:1])c3nc-2c(C(=O)[*:2])c(N)c1=O; aThr = C[C@H](O)[C@H](N)C(=O)O; NMeV = CN[C@H](C(=O)O)C(C)C; Sar = CNCC(=O)O

Tested on: CD2F1 mice, L1210 leukemia ip, survival T/C
Assay: NCI In Vivo Anticancer Drug Screen. Data for tumor model L1210 Leukemia (intraperitoneal) in CD2F1 (CDF1) mice
Details: higher = longer survival
Summary of the method: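 Implant tumor; dose compound or vehicle; measure endpoint in both groups; report treated divided by control.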

[1] = endpoint: mean survival time, dose: 100.0 mg/kg/injection, schedule: Q04DX003 (ip), vehicle: saline with Tween-80
[2] = endpoint: mean survival time, dose: 200.0 mg/kg/injection, schedule: Q04DX003 (ip), vehicle: saline with Tween-80
[3] = endpoint: mean survival time, dose: 400.0 mg/kg/injection, schedule: Q04DX003 (ip), vehicle: saline with Tween-80

Measured: T/C

Cc1c2oc3c(C)ccc(C(=O)N[C@@H]4C(=O)N[C@H](C(C)C)C(=O)N5CCC[C@H]5C(=O)N(C)CC(=O)N(C)[C@@H](C(C)C)C(=O)O[C@H]4C)c3nc-2c(C(=O)N[C@@H]2C(=O)N[C@H](C(C)C)C(=O)N3CCC[C@H]3C(=O)N(C)CC(=O)N(C)[C@@H](C(C)C)C(=O)O[C@H]2C)c(N)c1=O (I: [aThr][dV]P[Sar][NMeV] / II: [aThr][dV]P[Sar][NMeV]; ester I:1-I:C, II:1-II:C; linker I:N-II:N via Actinocin(9to1))
inactive: endpoint: mean survival time, dose: 0.01 mg/kg/injection, schedule: Q04DX003 (ip), vehicle: saline 101 % of control | endpoint: mean survival time, dose: 0.02 mg/kg/injection, schedule: Q04DX003 (ip), vehicle: saline 105 % of control | endpoint: mean survival time, dose: 0.03 mg/kg/injection, schedule: Q04DX003 (ip), vehicle: saline 107 % of control | endpoint: mean survival time, dose: 0.05 mg/kg/injection, schedule: Q04DX003 (ip), vehicle: saline 110 % of control | endpoint: mean survival time, dose: 0.06 mg/kg/injection, schedule: Q01DX009 (ip), vehicle: saline 99 % of control | endpoint: mean survival time, dose: 0.1 mg/kg/injection, schedule: Q01DX009 (ip), vehicle: other 120 % of control | endpoint: mean survival time, dose: 0.2 mg/kg/injection, schedule: Q01DX009 (ip), vehicle: other 90 % of control | endpoint: mean survival time, dose: 0.2 mg/kg/injection, schedule: Q01DX009 (ip), vehicle: saline 88 % of control | endpoint: mean survival time, dose: 0.4 mg/kg/injection, schedule: Q01DX001 (ip), vehicle: saline 114 % of control and 120 % of control | endpoint: mean survival time, dose: 0.4 mg/kg/injection, schedule: Q03DX003 (ip), vehicle: other 86 % of control | endpoint: mean survival time, dose: 0.6 mg/kg/injection, schedule: Q01DX001 (ip), vehicle: saline 122 % of control | endpoint: mean survival time, dose: 6.25 micrograms/kg/injection, schedule: Q01DX009 (ip), vehicle: saline + alcohol 104 % of control | endpoint: mean survival time, dose: 6.3 micrograms/kg/injection, schedule: Q01DX009 (ip), vehicle: water 106 % of control | endpoint: mean survival time, dose: 12.5 micrograms/kg/injection, schedule: Q01DX009 (ip), vehicle: saline + alcohol 107 % of control | endpoint: mean survival time, dose: 12.5 micrograms/kg/injection, schedule: Q01DX009 (ip), vehicle: water 114 % of control and 112 % of control | endpoint: mean survival time, dose: 25.0 micrograms/kg/injection, schedule: Q01DX009 (ip), vehicle: saline + alcohol 117 % of control | endpoint: mean survival time, dose: 25.0 micrograms/kg/injection, schedule: Q01DX009 (ip), vehicle: water 118 % of control and 120 % of control | endpoint: mean survival time, dose: 50.0 micrograms/kg/injection, schedule: Q01DX009 (ip), vehicle: saline + alcohol 109 % of control | endpoint: mean survival time, dose: 100.0 micrograms/kg/injection, schedule: Q01DX009 (ip), vehicle: water 115 % of control | endpoint: median survival time, dose: 0.07 mg/kg/injection, schedule: Q04DX003 (ip), vehicle: saline 122 % of control | endpoint: median survival time, dose: 0.13 mg/kg/injection, schedule: Q01DX001 (ip), vehicle: saline 115 % of control and 117 % of control and 118 % of control | endpoint: median survival time, dose: 0.25 mg/kg/injection, schedule: Q01DX001 (ip), vehicle: saline 118 % of control and 112 % of control | endpoint: median survival time, dose: 0.33 mg/kg/injection, schedule: Q04DX003 (ip), vehicle: saline 89 % of control | endpoint: median survival time, dose: 0.5 mg/kg/injection, schedule: Q01DX001 (ip), vehicle: saline 122 % of control | endpoint: median survival time, dose: 12.5 micrograms/kg/injection, schedule: Q01DX009 (ip), vehicle: saline + alcohol 113 % of control | endpoint: median survival time, dose: 25.0 micrograms/kg/injection, schedule: Q01DX009 (ip), vehicle: saline + alcohol 117 % of control
active: endpoint: mean survival time, dose: 0.1 mg/kg/injection, schedule: Q01DX007 (ip), vehicle: other 162 % of control | endpoint: mean survival time, dose: 0.1 mg/kg/injection, schedule: Q03DX003 (ip), vehicle: other 165 % of control | endpoint: mean survival time, dose: 0.2 mg/kg/injection, schedule: Q04DX003 (ip), vehicle: other 164 % of control | endpoint: median survival time, dose: 200.0 micrograms/kg/injection, schedule: Q01DX009 (ip), vehicle: saline + alcohol 166 % of control

CCOC(=O)NC(C)(C)CN(C(=O)OCC)C(C)(C)CO
inactive: endpoint: mean survival time, dose: 50.0 mg/kg/injection, schedule: Q01DX009 (ip), vehicle: saline 102 % of control | endpoint: mean survival time, dose: 100.0 mg/kg/injection, schedule: Q01DX009 (ip), vehicle: saline 98 % of control

CC(=O)C(C(C)=O)C(c1ccccn1)C(C(C)=O)C(C)=O
inactive: [1] 106 % of control | [2] 98 % of control | [3] 93 % of control

N#CCCN1c2ccccc2Sc2ccccc21
inactive: endpoint: mean survival time, dose: 75.0 mg/kg/injection, schedule: Q04DX003 (ip), vehicle: saline 102 % of control | endpoint: mean survival time, dose: 150.0 mg/kg/injection, schedule: Q04DX003 (ip), vehicle: saline 112 % of control

OC1c2ccccc2-c2ccc(Cl)cc21 (stereo not given)
inactive: [1] 94 % of control | [2] 86 % of control | [3] 96 % of control

CCNC(=O)OCc1cn2c(c1COC(=O)NCC)CCC2
inactive: endpoint: mean survival time, dose: 0.78 mg/kg/injection, schedule: Q04DX003 (ip), vehicle: other 101 % of control | endpoint: mean survival time, dose: 1.56 mg/kg/injection, schedule: Q04DX003 (ip), vehicle: other 87 % of control | endpoint: mean survival time, dose: 3.13 mg/kg/injection, schedule: Q04DX003 (ip), vehicle: other 92 % of control | endpoint: mean survival time, dose: 6.25 mg/kg/injection, schedule: Q04DX003 (ip), vehicle: other 92 % of control | endpoint: mean survival time, dose: 12.5 mg/kg/injection, schedule: Q04DX003 (ip), vehicle: other 97 % of control

Brc1cccc(-n2ccnc2)c1
inactive: [1] 102 % of control | [2] 112 % of control

CC(=O)N(CCCCCCN(N=O)C(C)=O)N=O
inactive: endpoint: mean survival time, dose: 75.0 mg/kg/injection, schedule: Q01DX001 (ip), vehicle: saline 110 % of control | endpoint: mean survival time, dose: 150.0 mg/kg/injection, schedule: Q01DX001 (ip), vehicle: saline 122 % of control | endpoint: mean survival time, dose: 300.0 mg/kg/injection, schedule: Q01DX001 (ip), vehicle: saline 116 % of control

CCS(=O)(=O)CCNCCS(=O)(=O)CC
inactive: endpoint: mean survival time, dose: 100.0 mg/kg/injection, schedule: Q04DX002 (ip), vehicle: saline with Tween-80 104 % of control | endpoint: mean survival time, dose: 200.0 mg/kg/injection, schedule: Q04DX002 (ip), vehicle: saline with Tween-80 93 % of control | endpoint: mean survival time, dose: 400.0 mg/kg/injection, schedule: Q04DX002 (ip), vehicle: saline with Tween-80 104 % of control

Clc1c(Cl)c(Cl)[c]([Hg][c]2c(Cl)c(Cl)c(Cl)c(Cl)c2Cl)c(Cl)c1Cl
inactive: endpoint: mean survival time, dose: 25.0 mg/kg/injection, schedule: Q01DX009 (ip), vehicle: saline with Tween-80 100 % of control | endpoint: mean survival time, dose: 25.0 mg/kg/injection, schedule: Q04DX003 (ip), vehicle: saline 103 % of control | endpoint: mean survival time, dose: 50.0 mg/kg/injection, schedule: Q01DX009 (ip), vehicle: saline with Tween-80 103 % of control | endpoint: mean survival time, dose: 50.0 mg/kg/injection, schedule: Q04DX003 (ip), vehicle: saline 97 % of control | endpoint: mean survival time, dose: 100.0 mg/kg/injection, schedule: Q01DX009 (ip), vehicle: saline with Tween-80 97 % of control | [1] 96 % of control | endpoint: mean survival time, dose: 100.0 mg/kg/injection, schedule: Q04DX003 (ip), vehicle: saline 97 % of control
